Assay results from patent US9255093B2, “Polycyclic HERG activators” (NOVARTIS AG, priority 2014, dated 2016).
Marks after values point to notes of the source that are not given here.

target: T1, hERG (human ether-a-go-go-related gene) potassium channel (Homo sapiens, UniProt Q12809); experiment: not given; settings: not given
T1 sequence (Q12809 whole entry): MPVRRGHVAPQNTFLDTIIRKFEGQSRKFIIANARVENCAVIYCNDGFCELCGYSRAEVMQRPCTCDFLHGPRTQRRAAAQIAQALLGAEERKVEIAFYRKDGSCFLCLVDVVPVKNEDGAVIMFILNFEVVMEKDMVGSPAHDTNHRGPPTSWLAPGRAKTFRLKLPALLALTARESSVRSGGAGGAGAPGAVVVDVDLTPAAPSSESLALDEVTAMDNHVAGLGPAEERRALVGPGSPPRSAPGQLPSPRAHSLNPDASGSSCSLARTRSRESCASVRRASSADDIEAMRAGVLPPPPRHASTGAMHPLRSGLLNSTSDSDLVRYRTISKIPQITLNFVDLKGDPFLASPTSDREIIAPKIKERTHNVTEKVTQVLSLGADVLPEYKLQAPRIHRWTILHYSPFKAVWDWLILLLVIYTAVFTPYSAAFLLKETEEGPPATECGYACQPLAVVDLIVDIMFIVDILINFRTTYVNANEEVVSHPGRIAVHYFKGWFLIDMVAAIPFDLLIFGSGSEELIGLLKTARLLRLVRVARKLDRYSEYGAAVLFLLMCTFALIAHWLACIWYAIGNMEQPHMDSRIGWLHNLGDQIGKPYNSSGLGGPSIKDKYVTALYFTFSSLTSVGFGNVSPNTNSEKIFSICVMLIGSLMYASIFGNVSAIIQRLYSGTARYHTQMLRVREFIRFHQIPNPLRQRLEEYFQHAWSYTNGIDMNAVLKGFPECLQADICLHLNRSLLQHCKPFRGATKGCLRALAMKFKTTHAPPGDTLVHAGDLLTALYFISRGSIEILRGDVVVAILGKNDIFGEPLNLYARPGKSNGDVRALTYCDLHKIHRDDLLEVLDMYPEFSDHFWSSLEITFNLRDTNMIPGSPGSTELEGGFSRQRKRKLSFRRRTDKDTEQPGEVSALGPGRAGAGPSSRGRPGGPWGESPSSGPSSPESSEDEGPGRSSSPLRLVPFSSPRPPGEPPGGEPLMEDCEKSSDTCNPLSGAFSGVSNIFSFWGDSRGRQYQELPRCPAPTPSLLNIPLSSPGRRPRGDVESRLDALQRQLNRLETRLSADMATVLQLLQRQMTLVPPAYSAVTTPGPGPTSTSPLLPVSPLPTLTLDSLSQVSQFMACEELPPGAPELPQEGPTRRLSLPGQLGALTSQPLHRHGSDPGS

Compound	% change@TL7@10 uM [%]
O=c1cc(C(F)(F)F)c2ccc(NCc3ccc4cc(-c5nn[nH]n5)oc4c3)cc2o1 [Example 222]	41

target: T1, hERG (human ether-a-go-go-related gene) potassium channel; experiment: QPatch automated patch-clamp hERG activator 4-concentration EC50 assay; settings: increase of hERG tail current amplitude at 7 second (TL7); 3.3 uM (footnote *); hERG stably expressed in CHO cells
Excerpt: A patch-clamp assay on the QPatch© automated patch clamp system was employed to assesses whether compounds functionally enhance the cardiac delayed rectifier hERG (human ether-a-go-go-related gene) potassium channel. The assay measures electric the current passing through hERG channels that are heterologously expressed in a stable Chinese hamster ovary (CHO) cell line. Channels are opened by a hERG-specific voltage protocol and the compound effect is directly characterized by the activation of the hERG current. EC50 values are obtained from fitting 4-concentration dose response curves (1.1, 3.3, 10 & 30 uM) in triplicates at 4 different sections of the voltage protocol (steady state current amplitude at +10 mV, at +30 mV, peak tail current amplitude and tail current amplitude at 7 second).

Compound	% change@TL7 (*@3.3 uM)
FC(F)Oc1c(Br)cc(NCc2ccc3cc(-c4nn[nH]n4)oc3c2)cc1Br [Example 4]	155* %
FC(F)(F)Oc1ccc(NCc2ccc3c(-c4nn[nH]n4)coc3c2)cc1Br [Example 233]	202* %

same assay, conditions: increase of hERG tail current amplitude at 7 second (TL7); 10 uM; hERG stably expressed in CHO cells

Compound	% change@TL7@10 uM [%]
FC(F)(F)Oc1cc(Cl)cc(NCc2cc3oc(-c4nnn[nH]4)cc3cc2Cl)c1 [Example 212]	116
CC(C)Oc1ccc(NCc2ccc3cc(-c4nnn[nH]4)oc3c2Cl)cc1C(F)(F)F [Example 171]	291
O=C(c1ccc(NCc2ccc3cc(-c4nnn[nH]4)oc3c2)cc1)C(F)(F)F [Example 30]	228
FC(F)Oc1ccc(NCc2ccc3c(C(F)(F)F)c(-c4nnn[nH]4)oc3c2)cc1C(F)(F)F [Example 60]	58
N#CCOc1ccc(NCc2cc3oc(-c4nnn[nH]4)cc3cc2Br)cc1C(F)(F)F [Example 155]	370
Fc1cc2oc(-c3nnn[nH]3)cc2cc1CNc1ccc(OC(F)(F)F)c(C(F)(F)F)c1 [Example 130]	220
Clc1ccc(NCc2cc3cc(-c4nnn[nH]4)oc3cc2Cl)cc1Cl [Example 139]	112
O=C(O)c1cc2cc(Cl)c(CNc3ccc(OCC(F)(F)F)c(C(F)(F)F)c3)cc2o1 [Example 224]	222
FC(F)(F)c1cc(NCc2cc3oc(-c4nnn[nH]4)cc3cc2Cl)cc(C(F)(F)F)c1Br [Example 189]	350
FC(F)(F)COc1ccc(NCc2cc3oc(-c4nnn[nH]4)cc3cc2Cl)cc1Cl [Example 8]	128
FC(F)(F)Oc1ccc(NCc2cc3oc(-c4nnn[nH]4)cc3cc2Cl)cc1Br [Example 36]	174
CCCc1ccc(NCc2ccc3c(C(F)(F)F)c(-c4nnn[nH]4)oc3c2)cc1C(F)(F)F [Example 55]	90
Fc1cc2oc(-c3nnn[nH]3)cc2cc1CNc1cc(C(F)(F)F)c(Br)c(C(F)(F)F)c1 [Example 133]	326
FC(F)(F)Oc1cc(NCc2cc3oc(-c4nnn[nH]4)cc3cc2Cl)ccc1Cl [Example 13]	39
CCCc1ccc(NCc2ccc3cc(-c4nnn[nH]4)oc3c2)cc1C(F)(F)F [Example 16]	521
O=C(O)c1oc2cc(CNc3ccc(OC(F)(F)F)c(Br)c3)ccc2c1C(F)(F)F [Example 107]	85
O=C(O)c1cc2ccc(CNc3cc(Br)c(Br)c(Br)c3)cc2o1 [Example 85]	397
FC1(F)Oc2ccc(NCc3ccc4cc(-c5nn[nH]n5)oc4c3)cc2O1 [Example 40]	161
FC(F)(F)c1cc(NCc2ccc3cc(-c4nn[nH]n4)oc3c2)ccc1Br [Example 39]	164
CC(Nc1cc(Cl)c(Cl)c(Cl)c1)c1ccc2oc(-c3nnn[nH]3)cc2c1 (centres unmarked) [Example 73]	132
CC(C)Oc1ccc(NCc2cc3oc(-c4nnn[nH]4)cc3cc2F)cc1C(F)(F)F [Example 163]	250
O=C(O)c1cc2cc(F)c(CNc3cc(C(F)(F)F)c(Br)c(C(F)(F)F)c3)cc2o1 [Example 229]	424

Compound	% change@TL7@10 uM [%]
CCCc1cc(NCc2ccc3oc(-c4nnn[nH]4)cc3c2)ccc1Cl [Example 68]	224
Clc1ccc(NCc2ccc3cc(-c4nn[nH]n4)oc3c2)cc1Br [Example 182]	249
C=C(C)c1cc(NCc2ccc3cc(-c4nn[nH]n4)oc3c2)ccc1OC(F)(F)F [Example 11]	129
CC(Nc1ccc(OC(F)(F)F)c(Cl)c1)c1ccc2oc(-c3nnn[nH]3)cc2c1 (centres unmarked) [Example 77]	118
Fc1cc(CNc2ccc(OCC(F)(F)F)c(C(F)(F)F)c2)cc2cc(-c3nnn[nH]3)oc12 [Example 147]	151
Fc1cc2cc(-c3nnn[nH]3)oc2cc1CNc1ccc(Cl)c(Cl)c1 [Example 208]	285
O=C(O)c1cc2cc(F)c(CNc3ccc(OC(F)(F)F)c(Cl)c3)cc2o1 [Example 226]	182
CCc1ccc(NCc2ccc3oc(C(=O)O)cc3c2)cc1C(F)(F)F [Example 124]	167
O=C(O)c1cc2ccc(CNc3ccc(SC(F)(F)F)cc3)cc2o1 [Example 113]	53
O=C(O)c1cc2cc(CNc3cc(Cl)c(Cl)c(Cl)c3)ccc2o1 [Example 120]	282
O=C(O)c1cc2cc(F)c(CNc3ccc(OC(F)F)c(C(F)(F)F)c3)cc2o1 [Example 230]	244
Fc1c(CNc2cc(C(F)(F)F)c(Br)c(C(F)(F)F)c2)ccc2oc(-c3nnn[nH]3)cc12 [Example 143]	193
O=C(O)c1cc2ccc(CNc3ccc(OC(F)(F)F)c(OC(F)(F)F)c3)cc2o1 [Example 104]	111
CCOc1c(Cl)cc(NCc2cc3oc(-c4nnn[nH]4)cc3cc2Cl)cc1Cl [Example 5]	146
Fc1cc2cc(-c3nnn[nH]3)oc2cc1CNc1ccc(C(F)(F)F)c(Cl)c1 [Example 196]	169
CC(C)COc1ccc(NCc2ccc3cc(-c4nn[nH]n4)oc3c2)cc1Br [Example 216]	88
Fc1ccc(NCc2cc3oc(-c4nnn[nH]4)cc3cc2F)cc1Cl [Example 215]	132
COc1ccc(NCc2ccc3cc(-c4nn[nH]n4)oc3c2)cc1Br [Example 174]	273
CSc1ccc(NCc2ccc3cc(C(=O)O)oc3c2)cc1C(F)(F)F [Example 96]	185
FC(F)(F)Oc1ccc(NCc2cc3oc(-c4nnn[nH]4)cc3cc2Cl)cc1C(F)(F)F [Example 6]	264
O=C(O)c1cc2ccc(CNc3cc(Cl)c(Cl)c(Cl)c3)cc2o1 [Example 86]	381
FC(F)(F)Oc1ccc(NCc2ccc3oc(-c4nn[nH]n4)cc3c2)cc1Br [Example 149]	335

Compound	% change@TL7@10 uM [%]
CCCc1ccc(NCc2cc3cc(-c4nnn[nH]4)oc3cc2F)cc1C(F)(F)F [Example 128]	142
Clc1cc(NNCc2ccc3cc(-c4nn[nH]n4)oc3c2)cc(Cl)c1Cl [Example 45]	145
COc1ccc(NCc2ccc3cc(C(=O)O)oc3c2)cc1C(F)(F)F [Example 117]	28
FC(F)(F)Sc1ccc(NCc2ccc3cc(-c4nn[nH]n4)oc3c2)cc1Cl [Example 20]	340
FC(F)(F)COc1ccc(NCc2ccc3cc(-c4nn[nH]n4)oc3c2)cc1Cl [Example 44]	146
FC(F)(F)Oc1ccc(NCc2ccc3cc(-c4nn[nH]n4)oc3c2)cc1OC(F)(F)F [Example 41]	160
CCc1ccc(NCc2ccc3oc(-c4nnn[nH]4)cc3c2)cc1C(F)(F)F [Example 78]	108
O=C(O)c1cc2ccc(CNc3ccc(OCC(F)(F)F)c(C(F)(F)F)c3)cc2o1 [Example 118]	27
Fc1cc2cc(-c3nnn[nH]3)oc2cc1CNc1ccc(C(F)(F)F)c(C(F)(F)F)c1 [Example 158]	277
CSc1cccc(NCc2ccc3cc(C(=O)O)oc3c2)c1 [Example 97]	159
CCCc1ccc(NCc2ccc3oc(C(=O)O)cc3c2)cc1Cl [Example 121]	210
FC(F)Oc1ccc(NCc2ccc3cc(-c4nn[nH]n4)oc3c2)cc1Cl [Example 17]	477
FC(F)(F)Oc1ccc(NCc2ccc3cc(-c4nn[nH]n4)oc3c2)cc1Cl [Example 46]	139
Clc1cc2cc(-c3nnn[nH]3)oc2cc1CNc1cc(Cl)c(Cl)c(Cl)c1 [Example 15]	162
O=C(O)c1cc2cc(F)c(CNc3ccc(OCC(F)(F)F)c(Cl)c3)cc2o1 [Example 225]	138
CCCc1ccc(NCc2ccc3c(C(F)(F)F)c(C(=O)O)oc3c2)cc1C(F)(F)F [Example 111]	65
CC(Nc1ccc(SC(F)(F)F)c(Cl)c1)c1ccc2oc(-c3nnn[nH]3)cc2c1 (centres unmarked) [Example 74]	124
CCOc1ccc(NCc2ccc3c(C(F)(F)F)c(-c4nnn[nH]4)oc3c2)cc1C(F)(F)F [Example 56]	88
FC(F)(F)COc1ccc(NCc2cc3cc(-c4nnn[nH]4)oc3cc2Cl)cc1C(F)(F)F [Example 135]	181
FC(F)(F)Oc1ccc(NCc2ccc3cc(-c4nn[nH]n4)oc3c2)cc1C(F)(F)F [Example 23]	290
Fc1cc2cc(-c3nnn[nH]3)oc2cc1CNc1ccc(Cl)c(Br)c1 [Example 180]	231
